Experimental data taken from ChEMBL document CHEMBL5154818, “Development of oxoisoaporphine derivatives with topoisomerase I inhibition and reversal of multidrug resistance in breast cancer MCF-7/ADR cells” (Eur J Med Chem, 2022).
Calls of active or inactive are those of the source. The calls are words filed in the database; no cut-off is given here.

How the values were obtained:
MCF7 [1] = test: Induction of cell cycle arrest in human MCF7 cells assessed accumulation of cells at G1 phase at 2 uM measured after 48 hrs by propidium iodide staining based flow cytometric analysis (reference value: 45.94%); format: functional
MCF7 [2] = test: Antitumor activity against human MCF7 cells xenografted in Balb/c nude mouse assessed as tumor growth inhibition at 1 mg/kg, ip administered 3 times a week for 3 weeks; format: functional; conditions: MCF7, 504 h, read-out: TGI
MCF7 [3] = test: Induction of cell cycle arrest in human MCF7 cells assessed accumulation of cells at G2 phase at 2 uM measured after 48 hrs by propidium iodide staining based flow cytometric analysis (reference value: 37.81%); format: functional
MCF7 [4] = test: Induction of apoptosis in human MCF7 cells assessed as increase in cleaved PARP expression 1.5 to 6 uM incubated for 24 hrs by Western blotting analysis; format: functional, cell-based; conditions: dose 1.5-6 µM
NCI/ADR-RES [5] = test: Induction of apoptosis in human MCF7/ADR cells assessed as decrease in Bcl-2 expression at 5 to 20 uM measured after 24 hrs by Western blotting analysis; format: functional, cell-based; conditions: dose 5-20 µM
NCI/ADR-RES [6] = test: Induction of apoptosis in human MCF7/ADR cells assessed as increase intracellular ROS level at 0.1 uM measured by DCFH-DA dye based flow cytometric analysis; format: functional, cell-based
L02 = test: Antiproliferative activity against human L02 cells after 48 hrs by MTT assay; format: functional, cell-based; conditions: L02, 48 h
[7] = molecular target: T1, DNA topoisomerase 1 (Homo sapiens) (UniProt P11387); test: Inhibition of human DNA topoisomerase 1 assessed as reduction in pBR322 DNA relaxation at 50 to 100 uM measured by gel electrophoresis method; conditions: dose 50-100 µM
T1 sequence (whole entry): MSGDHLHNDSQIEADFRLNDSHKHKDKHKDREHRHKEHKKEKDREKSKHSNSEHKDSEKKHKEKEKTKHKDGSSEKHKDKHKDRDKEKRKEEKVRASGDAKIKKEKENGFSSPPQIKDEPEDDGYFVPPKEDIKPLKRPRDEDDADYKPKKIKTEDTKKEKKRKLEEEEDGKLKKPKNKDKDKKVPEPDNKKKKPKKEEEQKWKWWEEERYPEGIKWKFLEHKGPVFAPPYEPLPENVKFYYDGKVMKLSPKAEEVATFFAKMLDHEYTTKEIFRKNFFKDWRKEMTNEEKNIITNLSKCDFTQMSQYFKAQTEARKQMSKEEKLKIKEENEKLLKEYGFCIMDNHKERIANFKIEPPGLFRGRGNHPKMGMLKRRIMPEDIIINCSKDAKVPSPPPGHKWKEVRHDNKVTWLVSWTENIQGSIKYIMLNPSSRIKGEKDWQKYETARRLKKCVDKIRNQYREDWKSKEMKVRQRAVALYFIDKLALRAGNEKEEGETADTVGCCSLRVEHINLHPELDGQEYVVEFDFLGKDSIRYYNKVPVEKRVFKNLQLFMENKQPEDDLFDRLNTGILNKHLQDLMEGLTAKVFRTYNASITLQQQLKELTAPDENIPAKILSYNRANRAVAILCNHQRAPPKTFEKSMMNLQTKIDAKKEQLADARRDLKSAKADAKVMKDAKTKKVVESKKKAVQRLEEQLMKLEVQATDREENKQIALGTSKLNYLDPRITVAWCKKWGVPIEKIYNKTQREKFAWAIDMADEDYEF

MCF7 [8] = test: Induction of apoptosis in human MCF7 cells assessed as early apoptotic cells at 2 to 8 uM incubated for 48 hrs by Annexin V-FITC/propidium iodide staining based flow cytometry analysis; format: functional; conditions: dose 2-8 µM
MCF7 [9] = test: Induction of cell cycle arrest in human MCF7 cells assessed accumulation of cells at S phase at 4 uM measured after 48 hrs by propidium iodide staining based flow cytometric analysis (reference value: 27.53%); format: functional
NCI/ADR-RES [10] = test: Induction of apoptosis in human MCF7/ADR cells assessed as increase in Bax expression at 5 to 20 uM measured after 24 hrs by Western blotting analysis; format: functional, cell-based; conditions: dose 5-20 µM
Calf thymus DNA [11] = test: Binding affinity to calf thymus DNA assessed as hypochromicity at 20 uM measured by UV-vis absorption spectroscopy; format: nucleic-acid assay; conditions: Bos taurus
A549 = test: Antiproliferative activity against human A549 cells after 48 hrs by MTT assay; format: functional, cell-based; conditions: A549, 48 h
MCF7 [12] = test: Antiproliferative activity against human MCF7 cells assessed as growth inhibition at 3 uM after 48 hrs by MTT assay relative to control; format: functional; conditions: read-out: GI
MCF7 [13] = test: Induction of cell cycle arrest in human MCF7 cells assessed accumulation of cells at G1 phase at 8 uM measured after 48 hrs by propidium iodide staining based flow cytometric analysis (reference value: 45.94%); format: functional
MCF7 [14] = test: Induction of cell cycle arrest in human MCF7 cells assessed accumulation of cells at S phase at 2 uM measured after 48 hrs by propidium iodide staining based flow cytometric analysis (reference value: 27.53%); format: functional
MCF7 [15] = test: Induction of apoptosis in human MCF7 cells assessed as increase in cleaved caspase-3 expression 1.5 to 6 uM incubated for 24 hrs by Western blotting analysis; format: functional, cell-based; conditions: dose 1.5-6 µM
[16] = Toxicity in BALB/c nude mouse xenografted with human MCF7 cells assessed as liver tissue damage at 1 to 10 mg/kg, ip administered 3 times a week for 3 weeks; format: organism-based; conditions: in vivo, 504 h, dose 1-10 mg/kg
NCI/ADR-RES [17] = test: Induction of apoptosis in human MCF7/ADR cells assessed as increase in apoptotic rate at 2 to 8 uM measured after 48 hrs by Annexin V-FITC/propidium iodide staining based flow cytometry analysis; format: functional; conditions: dose 2-8 µM
MDA-MB-231 = test: Antiproliferative activity against human MDA-MB-231 cells after 48 hrs by MTT assay; format: functional, cell-based; conditions: MDA-MB-231, 48 h
MCF7 [18] = test: Antiproliferative activity against human MCF7 cells after 48 hrs by MTT assay; format: functional, cell-based; conditions: MCF7, 48 h
MCF7 [19] = test: Antitumor activity against human MCF7 cells xenografted in Balb/c nude mouse assessed as tumor growth inhibition at 10 mg/kg, ip administered 3 times a week for 3 weeks; format: functional; conditions: MCF7, 504 h, read-out: TGI
MCF7 [20] = test: Induction of apoptosis in human MCF7 cells assessed as late apoptotic cells at 2 to 8 uM incubated for 48 hrs by Annexin V-FITC/propidium iodide staining based flow cytometry analysis; format: functional; conditions: dose 2-8 µM
MCF7 [21] = test: Induction of cell cycle arrest in human MCF7 cells assessed accumulation of cells at G2 phase at 4 uM measured after 48 hrs by propidium iodide staining based flow cytometric analysis (reference value: 37.81%); format: functional
NCI/ADR-RES [22] = test: Reversal of multidrug resistant activity in human MCF7/ADR cells after 48 hrs by MTT assay; format: functional, cell-based
Calf thymus DNA [23] = test: Binding affinity to calf thymus DNA assessed as red shift in absorption spectra at 20 uM by UV-vis absorption spectroscopy; format: nucleic-acid assay; conditions: Bos taurus
[24] = molecular target: ATP-dependent translocase ABCB1 (Homo sapiens, UniProt P08183); test: Inhibition of P-gp-mediated multidrug resistance in human MCF7/ADR cells at 10 to 20 uM assessed as rhodamine123 accumulation treated with rhodamine123 measured after 24 hrs by flow cytometry; format: cell-based; conditions: nci/adr-res, dose 10-20 µM
Chain of ATP-dependent translocase ABCB1 (P08183 whole entry): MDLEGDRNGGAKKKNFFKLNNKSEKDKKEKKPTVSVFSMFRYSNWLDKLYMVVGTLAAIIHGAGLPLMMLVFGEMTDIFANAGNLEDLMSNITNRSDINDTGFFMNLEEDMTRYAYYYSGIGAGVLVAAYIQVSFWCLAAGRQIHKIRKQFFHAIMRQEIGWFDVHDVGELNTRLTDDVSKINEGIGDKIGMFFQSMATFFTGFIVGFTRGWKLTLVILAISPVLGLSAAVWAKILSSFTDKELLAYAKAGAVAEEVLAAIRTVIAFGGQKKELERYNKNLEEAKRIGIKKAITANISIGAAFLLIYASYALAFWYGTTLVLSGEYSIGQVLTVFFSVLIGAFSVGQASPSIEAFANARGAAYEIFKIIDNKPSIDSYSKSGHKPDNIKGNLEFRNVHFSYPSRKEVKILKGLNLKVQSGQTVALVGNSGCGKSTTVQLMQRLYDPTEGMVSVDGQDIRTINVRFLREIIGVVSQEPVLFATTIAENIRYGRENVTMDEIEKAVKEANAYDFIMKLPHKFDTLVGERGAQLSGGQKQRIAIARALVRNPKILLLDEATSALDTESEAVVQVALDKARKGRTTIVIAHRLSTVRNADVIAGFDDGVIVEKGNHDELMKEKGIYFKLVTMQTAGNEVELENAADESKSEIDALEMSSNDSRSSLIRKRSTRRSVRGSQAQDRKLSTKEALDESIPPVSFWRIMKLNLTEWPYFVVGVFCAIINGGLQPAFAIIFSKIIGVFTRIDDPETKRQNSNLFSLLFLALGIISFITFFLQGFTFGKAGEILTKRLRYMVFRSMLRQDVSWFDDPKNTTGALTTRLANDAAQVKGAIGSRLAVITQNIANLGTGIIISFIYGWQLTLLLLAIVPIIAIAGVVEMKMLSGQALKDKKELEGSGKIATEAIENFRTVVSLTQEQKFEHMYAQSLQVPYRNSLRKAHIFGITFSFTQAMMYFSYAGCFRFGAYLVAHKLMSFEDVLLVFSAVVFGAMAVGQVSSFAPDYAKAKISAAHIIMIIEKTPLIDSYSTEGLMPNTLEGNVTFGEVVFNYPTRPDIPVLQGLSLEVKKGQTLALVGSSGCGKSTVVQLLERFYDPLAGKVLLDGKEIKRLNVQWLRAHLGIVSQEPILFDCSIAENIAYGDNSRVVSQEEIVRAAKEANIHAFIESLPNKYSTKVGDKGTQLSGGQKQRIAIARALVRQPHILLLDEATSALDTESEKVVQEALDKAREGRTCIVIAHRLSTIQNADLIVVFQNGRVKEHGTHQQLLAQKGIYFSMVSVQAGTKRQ

MCF7 [25] = test: Induction of cell cycle arrest in human MCF7 cells assessed accumulation of cells at G2 phase at 8 uM measured after 48 hrs by propidium iodide staining based flow cytometric analysis (reference value: 37.81%); format: functional

Compound `CC1CCCCN1CCOc1ccc2c3c(nccc13)-c1ccccc1C2=O` (stereo not drawn) has an Activity (MCF7 [1]) of 49.45%, an inhibition in vivo at 1 mg/kg (MCF7 [2]) of 32.4% and an Activity (MCF7 [3]) of 33.28%. The Activity (MCF7 [4]) was “Active”, the Activity (NCI/ADR-RES [5]) was “Active” and the Activity (NCI/ADR-RES [6]) was “Active”. The IC50 (L02) was 36.5 µM, the inhibition [7] was “Active” and the Activity (MCF7 [8]) was 5.4%. The Activity (MCF7 [9]) was 25.08%, the Activity (NCI/ADR-RES [10]) was “Active” and the Activity (Calf thymus DNA [11]) was 33.9%. It also gave an IC50 (A549) of 2390 nM, an inhibition of growth at 3 µM (MCF7 [12]) of 24.4% and an Activity (MCF7 [13]) of 53.27%. For the same compound, the Activity (MCF7 [14]) was 25.72%, the Activity (MCF7 [15]) was “Active” and the Activity [16] was “Non-Toxic”. For the same compound, the Activity (NCI/ADR-RES [17]) was 15.2%, the IC50 (MDA-MB-231) was 2420 nM and the IC50 (MCF7 [18]) was 1320 nM. It also gave an inhibition in vivo at 10 mg/kg (MCF7 [19]) of 7.2%, an Activity (MCF7 [20]) of 59.5% and an Activity (MCF7 [21]) of 32.26%. For the same compound, the IC50 (NCI/ADR-RES [22]) was 900 nM, the OD (Calf thymus DNA [23]) was 2.2 nm and the “inhibition (INH)” value [24] was “Active”. It also gave an Activity (MCF7 [25]) of 31.38%.
